Legend:
HCT-116 = assay: Cytotoxicity against MDR1 Pgp under-expressing human HCT116 cells after 24 hrs by MTT assay; format: functional, cell-based; conditions: HCT-116, 24 h
HepG2 = assay: Cytotoxicity against MDR1 Pgp overexpressing human HepG2 cells after 24 hrs by MTT assay; format: functional, cell-based; conditions: HepG2, 24 h

Compound `O=C1c2cc(CO)cc(O)c2C(=O)c2c(O[C@@H]3O[C@H](CO)[C@@H](O)[C@H](O)[C@H]3O)cccc21` has an IC50 (HCT-116) of 75 µM and an IC50 (HepG2) of over 100 µM.
`CC(C)=CC[C@H](OC(=O)C1OC1C)C1=CC(=O)c2c(O)ccc(O)c2C1=O` (some centres undefined) gave an IC50 (HCT-116) of 0.39 µM and an IC50 (HepG2) of 0.34 µM.
`CCC(=O)Oc1cc(C)cc2c1C(=O)c1c(OC(=O)CC)cc(OC)cc1C2=O` was tested, and the IC50 (HCT-116) was 9.2 µM and the IC50 (HepG2) was over 100 µM.
In the case of `CCC(=O)Oc1cccc2c1C(=O)c1c(OC(=O)CC)cc(C)cc1C2=O`, the IC50 (HCT-116) is reported as 14.8 µM and the IC50 (HepG2) is reported as over 100 µM.
In the case of `CC(=O)O[C@@H](CC=C(C)C)C1=CC(=O)c2c(O)ccc(O)c2C1=O` [ACETYLALKANNIN], the IC50 (HCT-116) is reported as 0.34 µM and the IC50 (HepG2) is reported as 0.39 µM.
For `CC(=O)O[C@H](CC=C(C)C)C1=CC(=O)c2c(O)ccc(O)c2C1=O` [ACETYLSHIKONIN], the IC50 (HCT-116) was 0.45 µM and the IC50 (HepG2) was 0.38 µM.
For `O=C1c2cccc(O)c2C(=O)c2c(O)cc(CO)cc21` [ALOE-EMODIN], the IC50 (HCT-116) was 8.7 µM and the IC50 (HepG2) was 10 µM.
`CC(C)=CC[C@@H](OC(=O)CC(C)(C)O)C1=CC(=O)c2c(O)ccc(O)c2C1=O` [BETA-HYDROXYISOVALERYLSHIKONIN] was tested, and the IC50 (HCT-116) was 0.37 µM and the IC50 (HepG2) was 0.59 µM.
`Cc1cc(O)c2c(c1)C(=O)c1cccc(O)c1C2=O` [CHRYSOPHANOL] was tested, and the IC50 (HCT-116) was 47.4 µM and the IC50 (HepG2) was 64.4 µM.
For `Cc1cc(O)c2c(c1)C(=O)c1cc(O)cc(O)c1C2=O` [EMODIN], the IC50 (HCT-116) was 5.7 µM and the IC50 (HepG2) was 5.2 µM.
`CCO[C@H](CC=C(C)C)C1=CC(=O)c2c(O)ccc(O)c2C1=O` [ETHYLSHIKONIN] showed an IC50 (HCT-116) of 0.45 µM and an IC50 (HepG2) of 0.42 µM.
`CC(C)=CC[C@H](OC(=O)C(C)C)C1=CC(=O)c2c(O)ccc(O)c2C1=O` [ISOBUTYLALKANNIN] was tested, and the IC50 (HCT-116) was 0.3 µM and the IC50 (HepG2) was 0.42 µM.
Work on `CC(C)=CC[C@@H](OC(=O)C(C)C)C1=CC(=O)c2c(O)ccc(O)c2C1=O` [ISOBUTYLSHIKONIN] yielded an IC50 (HCT-116) of 0.34 µM and an IC50 (HepG2) of 0.22 µM.
For `COc1cc(O)c2c(c1)C(=O)c1cc(C)cc(O)c1C2=O` [PHYSCION], the IC50 (HCT-116) was 19 µM and the IC50 (HepG2) was 77.3 µM.
With `O=C(O)c1cc(O)c2c(c1)C(=O)c1cccc(O)c1C2=O` [RHEIN] the IC50 (HCT-116) was 13 µM and the IC50 (HepG2) was 12.3 µM.
`CC(C)=CC[C@@H](O)C1=CC(=O)c2c(O)ccc(O)c2C1=O` [SHIKONIN] showed an IC50 (HCT-116) of 0.23 µM and an IC50 (HepG2) of 0.24 µM.
With `O=C(O)c1cc(O)c2c(c1)[C@H]([C@H]1c3cc(C(=O)O)cc(O)c3C(=O)c3c(O[C@@H]4O[C@H](CO)[C@@H](O)[C@H](O)[C@H]4O)cccc31)c1cccc(O[C@@H]3O[C@H](CO)[C@@H](O)[C@H](O)[C@H]3O)c1C2=O` [Sennoside A] the IC50 (HCT-116) was 68.2 µM and the IC50 (HepG2) was 51.6 µM.
